Test results: patent publication US7078556B2, “Antibiotics Cyan-416 A, Cyan-416 B, Cyan-416 C, Cyan-416 D and Cyan-416 E, and ester derivatives of Cyan-416 B” (Wyeth Holdings Corporation, priority 2002, dated 2006)
Values after ≈ are worked out from the molar mass of the structure shown. Read-outs that look alike come from different tables or passages of the source.

Experiments:
Assay in all cases: MIC by broth dilution
Type in all cases: cell-based
[1] = tested on: Pseudomonas aeruginosa GC 2214; details: GC2214, Table 1, 18 hours at 35° C.
[2] = tested on: Staphylococcus aureus GC 4536; details: GC4536, Table 1, 18 hours at 35° C.
Experimental: (§1) The minimum inhibitory concentration (MIC), the lowest concentration of the antibiotic which inhibits growth of the test organism, is determined by the broth dilution method using Muller-Hinton II […] (Baltimore Biological Laboratories) following the recommendations of the National Committee for Clinical Laboratory Standards [Methods for dilution antimicrobial susceptibility tests for bacteria that grow aerobically. Approved standard M7-A2. National Committee for Clinical Laboratory Standards, Villanova, Pa].
(§2) An inoculum level of 5×10^5 CFU/ml, and a range of antibiotic concentrations (64–0.06 μg/ml) is used. The MIC is determined after the microtiter plates are incubated for 18 hours at 35° C. in an ambient air incubator. The test organisms comprise a spectrum of the Gram-positive bacteria Staphylococcus aureus, Streptococcus pneumoniae, and Enterococcus sp., the Gram-negative bacteria Escherichia coli, and the yeast Candida albicans. These organisms include recent clinical isolates that are resistant to methicillin and vancomycin. MIC data of Cyan-416 A–E are listed in Table 1 and MIC data of ester derivatives of Cyan-416 B (Formula I) are listed in Table 2.

[3] = tested on: Enterococcus faecalis GC 2242; details: read-out: MIC
Experimental: as §1, §2

Escherichia coli GC 2203 = details: GC2203, 18 h
Experimental: as §1, §2

[4] = tested on: Enterococcus faecalis GC 4555; details: read-out: MIC
Experimental: as §1, §2

[5] = tested on: Enterococcus faecalis GC 842; details: GC842, Table 1, 18 hours at 35° C.
Experimental: as §1, §2

[6] = tested on: Staphylococcus aureus GC 2216; details: read-out: MIC
Experimental: as §1, §2

[7] = tested on: Escherichia coli GC 4560 (imp); details: Escherichia coli, 18 h
Experimental: as §1, §2

Candida albicans GC 3066 = details: GC3066, 18 h
Experimental: as §1, §2

[8] = tested on: Staphylococcus aureus GC 1131; details: read-out: MIC
Experimental: as §1, §2

[9] = tested on: Enterococcus faecium GC 4556; details: GC4556, Table 2, 18 hours at 35° C.
Experimental: as §1, §2

[10] = tested on: Enterococcus faecalis GC 6189; details: GC6189, Table 2, 18 hours at 35° C.
Experimental: as §1, §2

[11] = tested on: Streptococcus pneumoniae GC 1894; details: GC1894, Table 2, 18 hours at 35° C.
Experimental: as §1, §2

[12] = tested on: Streptococcus pneumoniae GC 6242; details: GC6242, Table 2, 18 hours at 35° C.
Experimental: as §1, §2

[13] = tested on: Enterococcus faecium GC 2243; details: GC2243, Table 2, 18 hours at 35° C.
Experimental: as §1, §2

[14] = tested on: Enterococcus faecium 4558; details: Table 2, 18 hours at 35° C.
Experimental: as §1, §2

[15] = tested on: Staphylococcus aureus GC 4541; details: GC4541, Table 2, 18 hours at 35° C.
Experimental: as §1, §2

[16] = tested on: Staphylococcus aureus GC 4543; details: GC4543, Table 2, 18 hours at 35° C.
Experimental: as §1, §2

[17] = tested on: Staphylococcus haemolyticus GC 4547; details: GC4547, Table 2, 18 hours at 35° C.
Experimental: as §1, §2

[18] = GC2242, Table 2, 18 hours at 35° C.
[19] = Table 2, Escherichia coli coli GC 2203, 18 hours at 35° C.
[20] = GC4555, Table 2, 18 hours at 35° C.
[21] = GC2216, Table 2, 18 hours at 35° C.
[22] = GC1131, Table 2, 18 hours at 35° C.

| Compound | MIC [7] [µg/mL] | MIC [9] [µg/mL] | MIC [10] [µg/mL] | MIC [11] [µg/mL] | MIC [3, 18] [µg/mL] | MIC [12] [µg/mL] | MIC (Escherichia coli GC 2203; [19]) [µg/mL] | MIC [13] [µg/mL] | MIC [4, 20] [µg/mL] | MIC [14] [µg/mL] | MIC [15] [µg/mL] | MIC [16] [µg/mL] | MIC [6, 21] [µg/mL] | MIC (Candida albicans GC 3066; Table 2, 18 hours at 35° C.) [µg/mL] | MIC [8, 22] [µg/mL] | MIC [17] [µg/mL] | other results |
| --- | --- | --- | --- | --- | --- | --- | --- | --- | --- | --- | --- | --- | --- | --- | --- | --- | --- |
| COC(=O)c1c(O)ccc(O)c1C(=O)c1c(O)cc(C)c(Cc2c(C)cc(O)c(C(=O)c3c(O)ccc(O)c3C(=O)OC)c2O)c1O [Example 4b, Cyan-416 E] | 64 (≈ 98.7 µM) | – | – | – | – | – | – | – | – | – | – | – | – | – | – | – | MIC [1]: 64 µg/mL (≈ 98.7 µM); MIC [2]: 64 µg/mL (≈ 98.7 µM); MIC ([3]; GC2242, Table 1, 18 hours at 35° C.): 64 µg/mL (≈ 98.7 µM); MIC (Escherichia coli GC 2203; Table 1, Escherichia coli GC 2203, 18 hours at 35° C.): > 64 µg/mL; MIC ([4]; GC4555, Table 1, 18 hours at 35° C.): 64 µg/mL (≈ 98.7 µM); MIC [5]: 64 µg/mL (≈ 98.7 µM); MIC ([6]; GC2216, Table 1, 18 hours at 35° C.): 64 µg/mL (≈ 98.7 µM); MIC (Candida albicans GC 3066; Table 1, 18 hours at 35° C.): 64 µg/mL (≈ 98.7 µM); MIC ([8]; GC1131, Table 1, 18 hours at 35° C.): 64 µg/mL (≈ 98.7 µM) |
| CCCC(=O)O[C@H]1c2cc(C)cc(O)c2C(O)=C2C(=O)[C@H]3C=C[C@]21Cc1cc(O)c(C(=O)c2c(O)ccc(O)c2C(=O)OC)c(O)c13 [Example 6, Cyan-416 B butyrate] | 16 (≈ 24.9 µM) | 8 (≈ 12.4 µM) | 16 (≈ 24.9 µM) | 16 (≈ 24.9 µM) | 8 (≈ 12.4 µM) | 32 (≈ 49.8 µM) | > 128 | 16 (≈ 24.9 µM) | 16 (≈ 24.9 µM) | 8 (≈ 12.4 µM) | 8 (≈ 12.4 µM) | 8 (≈ 12.4 µM) | 8 (≈ 12.4 µM) | > 128 | 8 (≈ 12.4 µM) | 16 (≈ 24.9 µM) | – |
| COC(=O)c1c(O)ccc(O)c1C(=O)c1c(O)cc2c(c1O)[C@@H]1C=C[C@]3(C2)C(=C(O)c2c(O)cc(C)cc2[C@@H]3OC(=O)C(C)C)C1=O [Example 7, Cyan-416 B isobutyrate] | 8 (≈ 12.4 µM) | 4 (≈ 6.22 µM) | 4 (≈ 6.22 µM) | 8 (≈ 12.4 µM) | 4 (≈ 6.22 µM) | 16 (≈ 24.9 µM) | > 128 | 8 (≈ 12.4 µM) | 4 (≈ 6.22 µM) | 2 (≈ 3.11 µM) | 2 (≈ 3.11 µM) | 4 (≈ 6.22 µM) | 4 (≈ 6.22 µM) | > 128 | 4 (≈ 6.22 µM) | 4 (≈ 6.22 µM) | – |
| CCCCC(=O)O[C@H]1c2cc(C)cc(O)c2C(O)=C2C(=O)[C@H]3C=C[C@]21Cc1cc(O)c(C(=O)c2c(O)ccc(O)c2C(=O)OC)c(O)c13 [Example 8, Cyan-416 B pentanoate] | 8 (≈ 12.2 µM) | 4 (≈ 6.09 µM) | 4 (≈ 6.09 µM) | 8 (≈ 12.2 µM) | 4 (≈ 6.09 µM) | 8 (≈ 12.2 µM) | > 128 | 4 (≈ 6.09 µM) | 4 (≈ 6.09 µM) | 2 (≈ 3.05 µM) | 4 (≈ 6.09 µM) | 4 (≈ 6.09 µM) | 4 (≈ 6.09 µM) | > 128 | 4 (≈ 6.09 µM) | 4 (≈ 6.09 µM) | – |
| CCCCCC(=O)O[C@H]1c2cc(C)cc(O)c2C(O)=C2C(=O)[C@H]3C=C[C@]21Cc1cc(O)c(C(=O)c2c(O)ccc(O)c2C(=O)OC)c(O)c13 [Example 9, Cyan-416 B hexanoate] | 8 (≈ 11.9 µM) | 4 (≈ 5.96 µM) | 4 (≈ 5.96 µM) | 8 (≈ 11.9 µM) | 4 (≈ 5.96 µM) | 8 (≈ 11.9 µM) | > 128 | 4 (≈ 5.96 µM) | 4 (≈ 5.96 µM) | 2 (≈ 2.98 µM) | 4 (≈ 5.96 µM) | 4 (≈ 5.96 µM) | 4 (≈ 5.96 µM) | > 128 | 4 (≈ 5.96 µM) | 4 (≈ 5.96 µM) | – |
